The values below come from ChEMBL document CHEMBL1909046, “DrugMatrix in vitro pharmacology data”.

Data set [1] is described as follows: DRUGMATRIX: Calcium Channel Type L, Dihydropyridine radioligand binding (ligand: [3H] Nitrendipine). It is filed as cell membranes, Rattus norvegicus, Wistar, Cerebral cortex, Membrane. As to conditions: Not Active = under 50% inhibition at 10 µM; for pIC50: read-out: IC50; for pKi: read-out: Ki.
The target of data set [2] is 5-hydroxytryptamine receptor 2B (Homo sapiens, UniProt P41595). It is filed as cell membranes, CHO-K1, Membrane. As to conditions: cho-k1. Also: in other assays of this panel Not Active means under 50% inhibition at 10 µM.
Sequence of 5-hydroxytryptamine receptor 2B (P41595 whole entry): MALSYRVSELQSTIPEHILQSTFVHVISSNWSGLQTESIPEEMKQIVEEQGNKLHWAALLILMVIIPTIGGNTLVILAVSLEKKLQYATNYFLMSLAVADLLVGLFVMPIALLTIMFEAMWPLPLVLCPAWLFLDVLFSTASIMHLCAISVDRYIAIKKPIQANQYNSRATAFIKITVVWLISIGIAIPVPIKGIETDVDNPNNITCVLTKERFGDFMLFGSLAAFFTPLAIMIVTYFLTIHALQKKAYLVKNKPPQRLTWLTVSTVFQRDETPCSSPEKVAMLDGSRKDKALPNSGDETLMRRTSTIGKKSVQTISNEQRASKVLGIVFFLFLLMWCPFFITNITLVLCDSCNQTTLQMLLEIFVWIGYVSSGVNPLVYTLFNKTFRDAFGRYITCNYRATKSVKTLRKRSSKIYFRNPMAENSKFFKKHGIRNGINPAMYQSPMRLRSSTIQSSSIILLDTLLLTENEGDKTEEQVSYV
The target in data set [3] is T1, Cholecystokinin receptor type A (Homo sapiens, UniProt P32238). Also: in other assays of this panel Not Active means under 50% inhibition at 10 µM.
T1 sequence (P32238 whole entry): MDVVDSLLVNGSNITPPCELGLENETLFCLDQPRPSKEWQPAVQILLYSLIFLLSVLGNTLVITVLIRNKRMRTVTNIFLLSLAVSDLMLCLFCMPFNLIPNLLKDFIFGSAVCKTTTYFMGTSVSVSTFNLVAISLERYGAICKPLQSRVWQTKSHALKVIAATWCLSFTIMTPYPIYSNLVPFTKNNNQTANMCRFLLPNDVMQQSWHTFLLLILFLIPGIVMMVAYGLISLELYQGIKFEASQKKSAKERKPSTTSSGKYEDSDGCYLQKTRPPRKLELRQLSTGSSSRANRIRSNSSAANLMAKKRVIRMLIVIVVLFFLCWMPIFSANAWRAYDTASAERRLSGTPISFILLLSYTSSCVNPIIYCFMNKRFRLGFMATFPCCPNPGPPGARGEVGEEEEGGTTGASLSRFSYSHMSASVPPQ
It is filed as cell membranes, Membrane. As to conditions: 1321-n1.

In data set [4] the target is Kappa-type opioid receptor (Homo sapiens, UniProt P41145). Put plainly: DRUGMATRIX: Opiate kappa (OP2, KOP) radioligand binding (ligand: [3H] Diprenorphine). It is filed as cell membranes, HEK293, Membrane. Conditions: hek293; Not Active = under 50% inhibition at 10 µM.
Sequence of Kappa-type opioid receptor (P41145 whole entry): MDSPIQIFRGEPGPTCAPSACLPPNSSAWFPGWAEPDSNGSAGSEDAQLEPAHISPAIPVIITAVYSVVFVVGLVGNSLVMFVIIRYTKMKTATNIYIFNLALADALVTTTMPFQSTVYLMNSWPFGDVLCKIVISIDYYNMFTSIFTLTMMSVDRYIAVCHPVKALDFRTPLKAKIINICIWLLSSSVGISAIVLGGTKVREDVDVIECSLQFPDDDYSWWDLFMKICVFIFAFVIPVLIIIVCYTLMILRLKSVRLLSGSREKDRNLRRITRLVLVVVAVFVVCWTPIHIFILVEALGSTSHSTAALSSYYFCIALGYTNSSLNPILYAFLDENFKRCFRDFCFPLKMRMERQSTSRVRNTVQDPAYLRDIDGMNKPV
In data set [5] the target is Matrix metalloproteinase-9 (Homo sapiens, UniProt P14780). In words: biochemical. Type of data set: cell-based.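 Also: inhibition of isolated MMP-9 enzyme activity toward a synthetic peptide substrate, from the DrugMatrix protease screening panel; in other assays of this panel Not Active means under 50% inhibition at 10 µM.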
Sequence of Matrix metalloproteinase-9 (P14780 whole entry): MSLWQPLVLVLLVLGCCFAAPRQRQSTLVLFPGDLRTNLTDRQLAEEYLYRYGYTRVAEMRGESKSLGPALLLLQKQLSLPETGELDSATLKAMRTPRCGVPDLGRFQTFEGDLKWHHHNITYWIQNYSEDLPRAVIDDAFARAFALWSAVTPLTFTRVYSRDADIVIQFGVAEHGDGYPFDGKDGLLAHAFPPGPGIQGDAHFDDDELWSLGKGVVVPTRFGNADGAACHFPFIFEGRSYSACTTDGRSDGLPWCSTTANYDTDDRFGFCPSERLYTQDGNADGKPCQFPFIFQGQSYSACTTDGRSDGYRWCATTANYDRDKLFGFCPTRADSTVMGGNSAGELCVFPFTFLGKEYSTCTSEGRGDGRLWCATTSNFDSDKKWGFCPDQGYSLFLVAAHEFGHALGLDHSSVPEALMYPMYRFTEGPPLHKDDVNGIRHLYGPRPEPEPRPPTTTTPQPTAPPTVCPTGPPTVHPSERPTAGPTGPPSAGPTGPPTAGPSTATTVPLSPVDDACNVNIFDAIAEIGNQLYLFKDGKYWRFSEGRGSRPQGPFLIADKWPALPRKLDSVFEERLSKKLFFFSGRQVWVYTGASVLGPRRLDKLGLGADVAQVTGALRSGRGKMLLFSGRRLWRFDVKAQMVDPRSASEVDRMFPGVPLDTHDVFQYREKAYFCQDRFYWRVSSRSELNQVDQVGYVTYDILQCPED
The target in data set [6] is Voltage-gated inwardly rectifying potassium channel KCNH2 (Homo sapiens, UniProt Q12809). Conditions: hek293. Also: in other assays of this panel Not Active means under 50% inhibition at 10 µM.
Sequence of Voltage-gated inwardly rectifying potassium channel KCNH2 (Q12809 whole entry): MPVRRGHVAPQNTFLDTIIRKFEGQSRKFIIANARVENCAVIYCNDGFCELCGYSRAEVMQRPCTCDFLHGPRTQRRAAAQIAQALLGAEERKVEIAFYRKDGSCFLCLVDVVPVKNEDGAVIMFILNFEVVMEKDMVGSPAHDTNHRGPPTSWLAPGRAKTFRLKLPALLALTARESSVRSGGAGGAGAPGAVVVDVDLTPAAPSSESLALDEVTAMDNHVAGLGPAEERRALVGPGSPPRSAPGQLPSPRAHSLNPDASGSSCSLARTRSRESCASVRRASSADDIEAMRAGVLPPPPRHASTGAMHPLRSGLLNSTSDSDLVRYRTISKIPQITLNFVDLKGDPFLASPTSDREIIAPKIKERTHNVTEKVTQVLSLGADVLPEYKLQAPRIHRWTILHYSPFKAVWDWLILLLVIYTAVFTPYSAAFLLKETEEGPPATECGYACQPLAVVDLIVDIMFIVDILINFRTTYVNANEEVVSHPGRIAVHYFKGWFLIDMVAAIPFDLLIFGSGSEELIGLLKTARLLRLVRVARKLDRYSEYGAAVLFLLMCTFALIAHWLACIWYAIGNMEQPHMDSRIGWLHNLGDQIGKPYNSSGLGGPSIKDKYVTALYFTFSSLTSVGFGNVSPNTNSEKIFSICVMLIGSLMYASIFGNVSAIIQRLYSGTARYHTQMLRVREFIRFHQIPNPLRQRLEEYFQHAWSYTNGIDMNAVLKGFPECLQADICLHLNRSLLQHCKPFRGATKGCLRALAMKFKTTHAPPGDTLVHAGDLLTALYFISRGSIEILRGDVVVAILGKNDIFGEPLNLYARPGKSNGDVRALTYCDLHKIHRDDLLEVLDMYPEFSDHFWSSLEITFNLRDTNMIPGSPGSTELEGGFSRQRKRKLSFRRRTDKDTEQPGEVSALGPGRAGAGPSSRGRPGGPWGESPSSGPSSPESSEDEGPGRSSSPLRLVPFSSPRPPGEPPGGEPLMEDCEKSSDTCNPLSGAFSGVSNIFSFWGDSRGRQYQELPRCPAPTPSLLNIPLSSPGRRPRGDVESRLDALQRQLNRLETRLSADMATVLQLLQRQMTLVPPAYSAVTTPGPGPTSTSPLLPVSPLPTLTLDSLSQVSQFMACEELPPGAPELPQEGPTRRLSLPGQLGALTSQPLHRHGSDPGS
The next data set has as its target T2, Estrogen receptor (Homo sapiens, UniProt P03372). Also: in other assays of this panel Not Active means under 50% inhibition at 10 µM.
T2 sequence (P03372 whole entry): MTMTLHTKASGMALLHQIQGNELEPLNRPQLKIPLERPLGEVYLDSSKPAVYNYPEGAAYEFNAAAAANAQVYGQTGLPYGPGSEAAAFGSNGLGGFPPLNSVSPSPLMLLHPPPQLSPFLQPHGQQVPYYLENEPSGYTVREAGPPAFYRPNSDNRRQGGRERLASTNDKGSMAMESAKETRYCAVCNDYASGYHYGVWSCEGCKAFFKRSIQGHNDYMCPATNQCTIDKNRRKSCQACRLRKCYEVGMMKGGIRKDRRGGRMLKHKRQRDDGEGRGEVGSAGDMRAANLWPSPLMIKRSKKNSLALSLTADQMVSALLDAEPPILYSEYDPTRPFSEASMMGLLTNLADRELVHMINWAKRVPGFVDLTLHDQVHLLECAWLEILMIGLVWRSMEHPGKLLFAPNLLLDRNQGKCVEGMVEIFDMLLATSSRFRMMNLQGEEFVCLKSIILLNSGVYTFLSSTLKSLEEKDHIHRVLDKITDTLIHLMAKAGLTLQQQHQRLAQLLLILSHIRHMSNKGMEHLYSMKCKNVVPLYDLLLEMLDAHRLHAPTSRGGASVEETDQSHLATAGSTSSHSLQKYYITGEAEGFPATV
Conditions: sf9.

pIC50, pKi: −log10 of the molar value.

Regarding `CC1=C(CC(=O)O)c2cc(F)ccc2/C1=C\c1ccc([S+](C)[O-])cc1` (stereo not drawn), the IC50 result in data set [1], in data set [2], in data set [3], in data set [4], in data set [5] and in data set [6] was “Not Active” throughout. The Ki result in data set [1] and in data set [6] was “Not Active” each time.

`CN1CCC(=C2c3ccccc3C=Cc3ccccc32)CC1` [CYPROHEPTADINE]: the IC50 result (in data set [3]; in data set [4]; in data set [5]; against Estrogen receptor) was “Not Active” each time.

Consider `CC/C(=C(/CC)c1ccc(O)cc1)c1ccc(O)cc1` [DIETHYLSTILBESTROL], for which the IC50 result in data set [3], in data set [5] and in data set [6] was “Not Active” in each case. Moreover, the Ki entry in data set [6] is “Not Active”.

With `CC(=O)N1CCN(c2ccc(OCC3COC(Cn4ccnc4)(c4ccc(Cl)cc4Cl)O3)cc2)CC1` (stereo not drawn) [KETOCONAZOLE], the IC50 entry (in data set [1]; in data set [2]; in data set [3]; in data set [4]; in data set [5]; against Estrogen receptor) was “Not Active” throughout. Also, the Ki entry in data set [1] was “Not Active”.

In the case of `C=CCN1CC[C@]23c4c5ccc(O)c4O[C@H]2C(=O)CC[C@@]3(O)[C@H]1C5` [NALOXONE], the IC50 entry in data set [2], in data set [3], in data set [5] and in data set [6] was “Not Active” throughout. The Ki result in data set [6] is “Not Active”.

With `COCCOC(=O)C1=C(C)NC(C)=C(C(=O)OC(C)C)C1c1cccc([N+](=O)[O-])c1` (stereo not drawn) [NIMODIPINE], the pIC50 in data set [1] was 9.62. Also, the pKi in data set [1] is 9.81. The IC50 entry (in data set [2]; in data set [3]; in data set [4]; in data set [5]; against Estrogen receptor; in data set [6]) was “Not Active” each time. Also, the Ki entry in data set [6] is given as “Not Active”.

As to `COCCCOc1ccnc(C[S+]([O-])c2nc3ccccc3[nH]2)c1C` (stereo not drawn) [RABEPRAZOLE], the IC50 entry in data set [1], in data set [2], in data set [3], in data set [4], in data set [5] and in data set [6] was “Not Active” each time. Further, the Ki entry in data set [1] and in data set [6] was “Not Active” in each case.

For `O=C(c1ccc(OCCN2CCCCC2)cc1)c1c(-c2ccc(O)cc2)sc2cc(O)ccc12` [RALOXIFENE], in data set [1], the pIC50 was 6.41 and the pKi was 6.60. In addition, in data set [3], the IC50 result was “Not Active”. The IC50 result in data set [5] is on record as “Not Active”. In addition, in data set [6], the IC50 result is “Not Active” and the Ki entry was “Not Active”.

Consider `CNC(=C[N+](=O)[O-])NCCSCc1ccc(CN(C)C)o1` [RANITIDINE], for which the IC50 entry (in data set [1]; in data set [2]; in data set [3]; in data set [4]; in data set [5]; against Estrogen receptor) was “Not Active” in each case. Moreover, the IC50 entry in data set [6] is reported as “Not Active”. Further, the Ki entry in data set [1] and in data set [6] was “Not Active” each time.

Regarding `CC(C)c1nc(CN(C)C(=O)N[C@H](C(=O)N[C@@H](Cc2ccccc2)C[C@H](O)[C@H](Cc2ccccc2)NC(=O)OCc2cncs2)C(C)C)cs1` [RITONAVIR], the IC50 entry (in data set [1]; in data set [2]; in data set [3]; in data set [5]; against Estrogen receptor) was “Not Active” each time. Also, the Ki entry in data set [1] is given as “Not Active”.

Regarding `CC(C)CC(N(C)C)C1(c2ccc(Cl)cc2)CCC1` (stereo not drawn) [SIBUTRAMINE], the IC50 entry in data set [1], in data set [2], in data set [3], in data set [4], in data set [5] and in data set [6] was “Not Active” in each case. The Ki entry in data set [1] and in data set [6] was “Not Active” each time.

With `[H]/N=C(/N)N[C@H]1[C@H](O)[C@@H](O)[C@H](O[C@@H]2O[C@@H](C)[C@](O)(C=O)[C@H]2O[C@@H]2O[C@@H](CO)[C@H](O)[C@@H](O)[C@@H]2NC)[C@@H](N/C(N)=N\[H])[C@@H]1O` [STREPTOMYCIN], the IC50 entry (in data set [1]; in data set [2]; in data set [3]; in data set [4]; in data set [5]; at Estrogen receptor) was “Not Active” each time. Also, the IC50 result in data set [6] is “Not Active”. Moreover, the Ki entry in data set [1] and in data set [6] was “Not Active” each time.

`Cc1cc(C)nc(NS(=O)(=O)c2ccc(N)cc2)n1` [SULFAMETHAZINE]: the IC50 entry in data set [1], in data set [2], in data set [3], in data set [4], in data set [5] and in data set [6] was “Not Active” each time. The Ki entry in data set [1] and in data set [6] was “Not Active” throughout.

For the molecule `C[C@]1(Cn2ccnn2)[C@H](C(=O)O)N2C(=O)C[C@H]2S1(=O)=O` [TAZOBACTAM], the IC50 entry (in data set [1]; in data set [2]; in data set [3]; in data set [4]; in data set [5]; against Estrogen receptor) was “Not Active” each time. Moreover, in data set [6], the IC50 entry was “Not Active”. Further, the Ki entry in data set [1] and in data set [6] was “Not Active” each time.

For the molecule `CN1C(C(=O)Nc2ccccn2)=C(O)c2sccc2S1(=O)=O` [TENOXICAM], the IC50 entry (in data set [1]; in data set [2]; in data set [3]; in data set [4]; in data set [5]; against Estrogen receptor) was “Not Active” throughout. Also, the IC50 result in data set [6] is reported as “Not Active”. The Ki entry in data set [1] and in data set [6] was “Not Active” each time.

For the molecule `CC(C)(C)c1ccc(C(O)CCCN2CCC(C(O)(c3ccccc3)c3ccccc3)CC2)cc1` (stereo not drawn) [TERFENADINE], the pIC50 in data set [1] was 6.11. Moreover, the negative-log Ki (pKi) in data set [1] was 6.30. Moreover, the IC50 entry (in data set [3]; in data set [4]; in data set [5]; against Estrogen receptor) was “Not Active” in each case.

`O=C1CCC(N2C(=O)c3ccccc3C2=O)C(=O)N1` (stereo not drawn) [THALIDOMIDE]: the IC50 entry in data set [1], in data set [2], in data set [3], in data set [4], in data set [5] and in data set [6] was “Not Active” throughout. Also, the Ki result in data set [1] and in data set [6] was “Not Active” in each case.

Take `Cc1onc(-c2ccccc2)c1-c1ccc(S(N)(=O)=O)cc1` [VALDECOXIB]: the IC50 entry in data set [1], in data set [2], in data set [3], in data set [4], in data set [5] and in data set [6] was “Not Active” each time. The Ki result in data set [1] and in data set [6] was “Not Active” throughout.

As for `CC(=O)CC(c1ccccc1)c1c(O)c2ccccc2oc1=O` (stereo not drawn) [WARFARIN], the IC50 result in data set [1], in data set [2], in data set [3], in data set [5] and in data set [6] was “Not Active” in each case. The Ki result in data set [1] and in data set [6] was “Not Active” throughout.
